Laboratory results published in patent US12312359B2 (Vitae Pharmaceuticals, LLC, priority 2016, dated 2025).
Blank lines part the entries; values can stand above or below the molecule they belong to.

What was measured:
[1] = tested on: human acute monocytic leukemia cell line MV-4-11; experiment: Assay 2: cell proliferation assay (ATP quantitation, CellTiter-Glo), MV-4-11; type: cell-based; details: MV-4-11 cells
Protocol: Potencies of inhibitor compounds against cell proliferation was assessed against the human acute monocytic leukemia cell line MV-4-11 (ATCC® CRL-9591™) based on ATP quantitation. MV-4-11 cells or toxicity control HL-60 cells (ATCC® CCL-240™) were incubated in 96-well tissue culture plates (1.67×10^4 cells in 200 μL culture media containing 10% FBS per well) with or without test compound for 72 h at 37° C., 5% CO2. After incubation, each well was mixed by pipetting and 95 μL from each well was transferred to a well in 96-well black OptiPlate® plates (PerkinElmer). An equal volume of CellTiter-Glo® Luminescent Cell Viability Assay reagent (Promega) was added to each well, followed by mixing for 5 min on an orbital plate shaker. Luminescence was measured on a Wallac EnVision 2104 Multilabel Reader (PerkinElmer) to quantitate ATP.

[2] = molecular target: T1, biotinylated wild-type menin and MLL-AF9 fusion protein (menin/MLL binding) (Homo sapiens, UniProt O00255); experiment: Assay 1: menin/MLL binding AlphaLISA assay, wild-type menin; details: Table 30; column head does not say wild-type or mutated menin
T1 construct: made in house; host or cells: menin: E. coli; MLL-AF9-FLAG: HEK293 cells, used as cleared lysate
T1 sequence (O00255 1-610): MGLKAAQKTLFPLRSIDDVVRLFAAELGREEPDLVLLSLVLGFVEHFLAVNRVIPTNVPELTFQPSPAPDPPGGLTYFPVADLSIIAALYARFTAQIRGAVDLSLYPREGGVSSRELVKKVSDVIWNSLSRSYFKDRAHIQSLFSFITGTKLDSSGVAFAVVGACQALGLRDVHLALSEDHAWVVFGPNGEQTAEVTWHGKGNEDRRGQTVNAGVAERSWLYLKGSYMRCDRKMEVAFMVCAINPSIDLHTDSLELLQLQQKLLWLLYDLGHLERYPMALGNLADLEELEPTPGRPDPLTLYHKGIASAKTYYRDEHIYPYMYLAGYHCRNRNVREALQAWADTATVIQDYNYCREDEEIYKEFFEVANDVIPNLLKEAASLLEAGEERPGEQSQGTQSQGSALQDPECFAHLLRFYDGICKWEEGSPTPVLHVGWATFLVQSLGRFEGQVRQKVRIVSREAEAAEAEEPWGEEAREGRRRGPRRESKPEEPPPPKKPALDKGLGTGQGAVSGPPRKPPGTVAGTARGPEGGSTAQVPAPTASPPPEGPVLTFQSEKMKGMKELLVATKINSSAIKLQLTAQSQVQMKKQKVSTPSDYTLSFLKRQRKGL
Protocol: Potencies of inhibitor compounds against menin/MLL binding were assessed by AlphaLISA assay using biotinylated (1) wild-type menin or (2) mutated menin (described in Huang et al, 2012, Nature, 482, 542-546) and MLL-AF9 fusion protein bearing a FLAG epitope at its C-terminus. Menin proteins were expressed in E. coli and covalently modified with biotin using EZ-Link™ Sulfo-NHS-Biotin (ThermoFisher Cat.No. 21217) according to manufacturer's protocol. MLL1-1,396 fused to AF91-92 and the C-terminal FLAG peptide was expressed in HEK293 cells and used as a lysate cleared at 21,000×g for 10 min.
Compounds (2 μL of solutions in DMSO) were dispensed in white 96-well half-area plates (Corning Cat.No. 3693) and incubated for 30 min at RT with 5 nM biotinylated menin and appropriate amount of MLL-AF9-FLAG lysate in 40 μL of 50 mM Tris-HCl buffer pH 7.4 containing 5% (v/v) DMSO, 50 mM NaCl, 0.01% (w/v) bovine serum albumin (BSA) and 1 mM DTT. To this incubation mixture, 40 μL of AlphaLISA anti-FLAG acceptor (PerkinElmer Cat.No. AL112C) and streptavidin donor (PerkinElmer Cat.No. 6760002) beads (10 μg/mL each) was added and incubation continued at RT for 60 min. Alpha (amplified luminescent proximity homogeneous assay) signal was measured on an Envision multi-label plate reader at the end of the incubation. All steps were conducted under dim fluorescent light.
These percent inhibition values were regressed against compound concentrations in the assay using four parameter logit non-linear curve fitting (XLFit, IDBS). The IC50 values were derived from the curve fitting as inflection points on the dose-response curves and are set out in Table 30 below.

Molecule: 2-((4-(7-(((1r,4r)-4- (3,3- dimethylureido)cyclo- hexyl) methyl)- 2,7-diazaspiro [3.5]nonan-2- yl)pyrimidin-5- yl)oxy)-5-fluoro- N,N-diisopropyl benzamide [Example 97]
EC50 ([1]; 72 h): 100 to 1000 nM
IC50 [2]: < 100 nM

Molecule: CCN(C(=O)C(C)C)c1cc(F)ccc1Oc1cncnc1N1CC2(CN(C(=O)C3Cc4ccc(S(C)(=O)=O)cc4C3)C2)C1 (stereo not drawn) [Example 117, N-ethyl-N-(5-fluoro-2-((4-(6-(5-(methylsulfonyl)-2,3-dihydro-1H-indene-2-carbonyl)-2,6diazaspiro[3.3]heptan-2-yl)pyrimidin-5-yl)oxy)phenyl)iso-butyramide]
EC50 ([1]; Homo sapiens, MV4-11, 72 h): 100 to 1000 nM
IC50 [2]: < 100 nM

Molecule: N[C@H]1CC[C@H](CCN2CC3(C2)CN(c2ncncc2Oc2ccc(F)cc2-c2cccnc2C2CC2)C3)CC1 [Example 82, (1r,4r)-4-(2-(6-(5-(2-(2-cyclopropylpyridin-3-yl)-4-fluorophenoxy)pyrimidin-4-yl)-2,6-diazaspiro[3.3]heptan-2-yl)ethyl)cyclohexan-1-amine]
EC50 ([1]; Homo sapiens, MV4-11, 72 h): 100 to 1000 nM
IC50 [2]: < 100 nM

Molecule: N#Cc1ccc(-c2cc(F)ccc2Oc2cncnc2N2CC3(CN(CC4(O)CCOCC4)C3)C2)c(C2CC2)c1 [Example 214, 2-cyclopropyl-5′-fluoro-2′-((4-(6-((4-hydroxytetrahydro-2H-pyran-4-yl)methyl)-2,6-diazaspiro[3.3]heptan-2-yl)pyrimidin-5-yl)oxy)-[1,1′-biphenyl]-4-carbonitrile]
EC50 ([1]; Homo sapiens, MV4-11, 72 h): 100 to 1000 nM
IC50 [2]: < 100 nM

Molecule: CCN(C(=O)C(C)C)c1cc(F)ccc1Oc1cncnc1N1CC2(CCN(C[C@H]3CC[C@H](NC(=O)OC)CC3)CC2)C1 [Example 85, methyl ((1r,4r)-4-((2-(5-(2-(N-ethylisobutyramido)-4-fluorophenoxy)pyrimidin-4-yl)-2,7-diazaspiro[3.5]nonan-7-yl)methyl)cyclohexyl) carbamate]
EC50 ([1]; Homo sapiens, MV4-11, 72 h): 100 to 1000 nM
IC50 [2]: < 100 nM

Molecule: CC(C)c1ccccc1-c1cc(F)ccc1Oc1cncnc1N1CCC2(CCN(C[C@H]3CC[C@H](N)CC3)C2)C1 (stereo partly drawn) [Example 219, (1r,4r)-4-((7-(5-((5-fluoro-2′-isopropyl-[1,1′-biphenyl]-2-yl)oxy)pyrimidin-4-yl)-2,7-diazaspiro[4.4]nonan-2-yl)methyl)cyclo-hexan-1-amine]
EC50 ([1]; Homo sapiens, MV4-11, 72 h): 100 to 1000 nM
IC50 [2]: < 100 nM

Molecule: N#Cc1ccc2c(CN3CCC4(CCN(c5ncncc5Oc5ccc(F)cc5OCC5CC5)C4)C3)c[nH]c2c1 (stereo not drawn) [Example 201, 3-((7-(5-(2-(cyclopropylmethoxy)-4-fluorophenoxy)pyrimidin-4-yl)-2,7-diazaspiro[4.4]nonan-2-yl)methyl)-1H-indole-6-carbonitrile]
EC50 ([1]; Homo sapiens, MV4-11, 72 h): ≥ 1000 nM
IC50 [2]: < 100 nM

Molecule: CC(C)N(C)C(=O)c1cc(F)ccc1Oc1cncnc1N1CC2(CN(CC[C@H]3CC[C@H](NC(=O)OC(C)(C)C)CC3)C2)C1 [Example 134, tert-butyl ((1r,4r)-4-(2-(6-(5-(4-fluoro-2-(isopropyl(methyl)carbamoyl)phenoxy)pyrimidin-4-yl)-2,6-diazaspiro[3.3]heptan-2-yl)ethyl)cyclohexyl) carbamate]
EC50 ([1]; Homo sapiens, MV4-11, 72 h): 100 to 1000 nM
IC50 [2]: < 100 nM

More lines, now with the values ahead:

EC50 ([1]; Homo sapiens, MV4-11, 72 h): < 100 nM
IC50 [2]: < 100 nM
Molecule: CC(C)n1nccc1-c1cc(F)ccc1Oc1cncnc1N1CCC2(CCN(Cc3ccc4[nH]c(=O)[nH]c4c3)C2)C1 (single isomer, unassigned) [Example 197A, 5-((7-(5-(4-fluoro-2-(1-isopropyl-1H-pyrazol-5-yl)phenoxy)pyrimidin-4-yl)-2,7-diazaspiro[4.4]nonan-2-yl)methyl)-1,3-dihydro-2H-benzo[d]imidazol-2-one]

EC50 ([1]; Homo sapiens, MV4-11, 72 h): 100 to 1000 nM
IC50 [2]: < 100 nM
Molecule: CC(C)N(C)C(=O)c1cc(F)ccc1Oc1cncnc1N1CCC2(CN(C(=O)Cc3ccc(C#N)cc3)C2)C1 [Example 127, 2-((4-(2-(2-(4-cyanophenyl)acetyl)-2,6-diazaspiro[3.4]octan-6-yl)pyrimidin-5-yl)oxy)-5-fluoro-N-isopropyl-N-methylbenzamide]

EC50 ([1]; Homo sapiens, MV4-11, 72 h): 100 to 1000 nM
IC50 [2]: < 100 nM
Molecule: CCn1c(=O)[nH]c2cc(CN3CCC4(CCN(c5ncncc5Oc5ccc(F)cc5C(=O)N(C)C(C)C)C4)C3)ccc21 (stereo not drawn) [Example 128, 2-((4-(7-((1-ethyl-2-oxo-2,3-dihydro-1H-benzo[d]imidazol-5-yl)methyl)-2,7-diazaspiro[4.4]nonan-2-yl)pyrimidin-5-yl)oxy)-5-fluoro-N-isopropyl-N-methylbenzamide]

EC50 ([1]; Homo sapiens, MV4-11, 72 h): 100 to 1000 nM
IC50 [2]: < 100 nM
Molecule: CC(C)N(C(=O)c1cc(F)ccc1Nc1cncnc1N1CCC2(CC1)CN(C[C@H]1CC[C@H](NC(=O)OC(C)(C)C)CC1)C2)C(C)C [Example 241, tert-butyl ((1r,4r)-4-((7-(5-((2-(diisopropylcarbamoyl)-4-fluorophenyl)amino)pyrimidin-4-yl)-2,7-diazaspiro [3.5]nonan-2-yl)methyl)cyclohexyl) carbamate]

EC50 ([1]; Homo sapiens, MV4-11, 72 h): 100 to 1000 nM
IC50 [2]: < 100 nM
Molecule: CC(O)c1ccccc1-c1cc(F)ccc1Oc1cncnc1N1CCC2(CCN(Cc3ccc4[nH]c(=O)[nH]c4c3)C2)C1 (stereo not drawn) [Example 60, 5-((7-(5-((5-fluoro-2′-(1-hydroxyethyl)-[1,1′-biphenyl]-2-yl)oxy)pyrimidin-4-yl)-2,7-diazaspiro[4.4]nonan-2-yl)methyl)-1H-benzo[d]imidazol-2(3H)-one]

EC50 ([1]; Homo sapiens, MV4-11, 72 h): < 100 nM
IC50 [2]: < 100 nM
Molecule: CCc1ncccc1-c1cc(F)ccc1Oc1cncnc1N1CCC2(CCN(Cc3ccc4[nH]c(=O)[nH]c4c3)C2)C1 (stereo not drawn) [Example 234, 5-((7-(5-(2-(2-ethylpyridin-3-yl)-4-fluorophenoxy)pyrimidin-4-yl)-2,7-diazaspiro [4.4]nonan-2-yl)methyl)-1,3-dihydro-2H-benzo[d]imidazol-2-one]

EC50 ([1]; Homo sapiens, MV4-11, 72 h): < 100 nM
IC50 [2]: < 100 nM
Molecule: CC(C)N(C(=O)c1cc(F)ccc1Oc1cncnc1N1CC2(CC(N(C)C3CCOCC3)C2)C1)C(C)C [Example 240, 5-fluoro-N,N-diisopropyl-2-((4-(6-(methyl(tetrahydro-2H-pyran-4-yl)amino)-2-azaspiro[3.3]heptan-2-yl)pyrimidin-5-yl)oxy)benzamide]

EC50 ([1]; Homo sapiens, MV4-11, 72 h): < 100 nM
IC50 [2]: < 100 nM
Molecule: CCn1c(=O)[nH]c2cc(CN3CCC4(CCN(c5ncncc5Oc5ccc(F)cc5-c5ccc(C#N)cc5C5CC5)C4)C3)ccc21 (stereo not drawn) [Example 191, 2-cyclopropyl-2′-((4-(7-((1-ethyl-2-oxo-2,3-dihydro-1H-benzo[d]imidazol-5-yl)methyl)-2,7-diazaspiro[4.4]nonan-2-yl)pyrimidin-5-yl)oxy)-5′-fluoro-[1,1′-biphenyl]-4-carbonitrile]

EC50 ([1]; Homo sapiens, MV4-11, 72 h): < 100 nM
IC50 [2]: < 100 nM
Molecule: CC(C)c1ncncc1-c1cc(F)ccc1Oc1cncnc1N1CCC2(CCN(Cc3ccc4c(c3)[nH]c(=O)n4C)C2)C1 (stereo not drawn) [Example 150, 5-((7-(5-(4-fluoro-2-(4-isopropylpyrimidin-5-yl)phenoxy)pyrimidin-4-yl)-2,7-diazaspiro[4.4]nonan-2-yl)methyl)-1-methyl-1,3-dihydro-2H-benzo[d]imidazol-2-one]

EC50 ([1]; Homo sapiens, MV4-11, 72 h): < 100 nM
IC50 [2]: < 100 nM
Molecule: N#Cc1ccc(-c2cc(F)ccc2Oc2cncnc2N2CCC3(CCN(Cc4ccc5oc(=O)[nH]c5c4)C3)C2)c(C2CC2)c1 (stereo not drawn) [Example 169, 2-cyclopropyl-5′-fluoro-2′-((4-(7-((2-oxo-2,3-dihydrobenzo[d]oxazol-5-yl)methyl)-2,7-diazaspiro[4.4]nonan-2-yl)pyrimidin-5-yl)oxy)-[1,1′-biphenyl]-4-carbonitrile]
